{"source": "paper PMC7156458", "about": "“Synthetic biology based construction of biological activity-related library of fungal decalin-containing diterpenoid pyrones” (Nature Communications, 2020)", "target": "Aβ42 (Homo sapiens, UniProt P05067)", "sequence (P05067 672-713)": "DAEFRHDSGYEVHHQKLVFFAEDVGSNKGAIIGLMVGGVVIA", "test": "Th-T (thioflavin-T) assay of Aβ42 aggregation", "format": "biochemical", "settings": "for Th-T assay plate reading, mean of three wells (Supplementary Fig. 47): source data, Ab alone and No Ab as controls"}
{"smiles": "C=C1CCC2C(C)(CCC=C(C)C)C(O)CCC2(C)C1Cc1c(OC)oc(C)c(C)c1=O", "note": "(stereo not drawn) [Compound 15, viridoxin A hydrolysate]", "values": [{"measurement": "Th-T fluorescence, mean of three wells", "setting": "Aβ42 aggregation time course, reading M117", "value": 3.35}, {"measurement": "Th-T fluorescence, mean of three wells", "setting": "Aβ42 aggregation time course, reading M118", "value": 3.314}, {"measurement": "Th-T fluorescence, mean of three wells", "setting": "Aβ42 aggregation time course, reading M119", "value": 3.3216}, {"measurement": "Th-T fluorescence, mean of three wells", "setting": "Aβ42 aggregation time course, reading M120", "value": 3.354}, {"measurement": "Th-T fluorescence, mean of three wells", "setting": "Aβ42 aggregation time course, reading M121", "value": 3.335}, {"measurement": "Th-T fluorescence, mean of three wells", "setting": "Aβ42 aggregation time course, reading M122", "value": 3.364}, {"measurement": "Th-T fluorescence, mean of three wells", "setting": "Aβ42 aggregation time course, reading M123", "value": 3.352}, {"measurement": "Th-T fluorescence, mean of three wells", "setting": "Aβ42 aggregation time course, reading M124", "value": 3.339}, {"measurement": "Th-T fluorescence, mean of three wells", "setting": "Aβ42 aggregation time course, reading M125", "value": 3.327}, {"measurement": "Th-T fluorescence, mean of three wells", "setting": "Aβ42 aggregation time course, reading M126", "value": 3.362}, {"measurement": "Th-T fluorescence, mean of three wells", "setting": "Aβ42 aggregation time course, reading M127", "value": 3.317}, {"measurement": "Th-T fluorescence, mean of three wells", "setting": "Aβ42 aggregation time course, reading M128", "value": 3.323}, {"measurement": "Th-T fluorescence, mean of three wells", "setting": "Aβ42 aggregation time course, reading M129", "value": 3.297}, {"measurement": "Th-T fluorescence, mean of three wells", "setting": "Aβ42 aggregation time course, reading M130", "value": 3.34}, {"measurement": "Th-T fluorescence, mean of three wells", "setting": "Aβ42 aggregation time course, reading M131", "value": 3.327}, {"measurement": "Th-T fluorescence, mean of three wells", "setting": "Aβ42 aggregation time course, reading M132", "value": 3.341}, {"measurement": "Th-T fluorescence, mean of three wells", "setting": "Aβ42 aggregation time course, reading M133", "value": 3.324}, {"measurement": "Th-T fluorescence, mean of three wells", "setting": "Aβ42 aggregation time course, reading M134", "value": 3.304}, {"measurement": "Th-T fluorescence, mean of three wells", "setting": "Aβ42 aggregation time course, reading M135", "value": 3.315}, {"measurement": "Th-T fluorescence, mean of three wells", "setting": "Aβ42 aggregation time course, reading M136", "value": 3.347}, {"measurement": "Th-T fluorescence, mean of three wells", "setting": "Supplementary Fig. 47, reading M137", "value": 3.349}, {"measurement": "Th-T fluorescence, mean of three wells", "setting": "Supplementary Fig. 47, reading M138", "value": 3.365}, {"measurement": "Th-T fluorescence, mean of three wells", "setting": "Supplementary Fig. 47, reading M139", "value": 3.354}, {"measurement": "Th-T fluorescence, mean of three wells", "setting": "Supplementary Fig. 47, reading M140", "value": 3.356}, {"measurement": "Th-T fluorescence, mean of three wells", "setting": "Supplementary Fig. 47, reading M141", "value": 3.3427}, {"measurement": "Th-T fluorescence, mean of three wells", "setting": "Supplementary Fig. 47, reading M142", "value": 3.34}, {"measurement": "Th-T fluorescence, mean of three wells", "setting": "Supplementary Fig. 47, reading M143", "value": 3.336}, {"measurement": "Th-T fluorescence, mean of three wells", "setting": "Supplementary Fig. 47, reading M144", "value": 3.346}, {"measurement": "Th-T fluorescence, mean of three wells", "setting": "Supplementary Fig. 47, reading M145", "value": 3.328}, {"measurement": "Th-T assay plate reading, mean of three wells (Supplementary Fig. 47)", "setting": "measurement M1", "value": 0.2276}, {"measurement": "Th-T assay plate reading, mean of three wells (Supplementary Fig. 47)", "setting": "measurement M2", "value": 0.2029}, {"measurement": "Th-T assay plate reading, mean of three wells (Supplementary Fig. 47)", "setting": "measurement M3", "value": 0.2068}, {"measurement": "Th-T assay plate reading, mean of three wells (Supplementary Fig. 47)", "setting": "measurement M4", "value": 0.2103}, {"measurement": "Th-T assay plate reading, mean of three wells (Supplementary Fig. 47)", "setting": "measurement M5", "value": 0.2149}, {"measurement": "Th-T assay plate reading, mean of three wells (Supplementary Fig. 47)", "setting": "measurement M6", "value": 0.2264}, {"measurement": "Th-T assay plate reading, mean of three wells (Supplementary Fig. 47)", "setting": "measurement M7", "value": 0.2421}, {"measurement": "Th-T assay plate reading, mean of three wells (Supplementary Fig. 47)", "setting": "measurement M8", "value": 0.3484}, {"measurement": "Th-T assay plate reading, mean of three wells (Supplementary Fig. 47)", "setting": "measurement M9", "value": 0.4623}, {"measurement": "Th-T assay plate reading, mean of three wells (Supplementary Fig. 47)", "setting": "measurement M10", "value": 0.8904}, {"measurement": "Th-T assay plate reading, mean of three wells (Supplementary Fig. 47)", "setting": "measurement M11", "value": 1.43}, {"measurement": "Th-T assay plate reading, mean of three wells (Supplementary Fig. 47)", "setting": "measurement M12", "value": 1.748}, {"measurement": "Th-T assay plate reading, mean of three wells (Supplementary Fig. 47)", "setting": "measurement M13", "value": 1.906}, {"measurement": "Th-T assay plate reading, mean of three wells (Supplementary Fig. 47)", "setting": "measurement M14", "value": 1.9845}, {"measurement": "Th-T assay plate reading, mean of three wells (Supplementary Fig. 47)", "setting": "measurement M15", "value": 1.9935}, {"measurement": "Th-T assay plate reading, mean of three wells (Supplementary Fig. 47)", "setting": "measurement M16", "value": 2.026}, {"measurement": "Th-T fluorescence, mean of three wells", "setting": "reading M17, Supplementary Fig. 47 source data", "value": 2.072}, {"measurement": "Th-T fluorescence, mean of three wells", "setting": "time-course reading M97, Supplementary Fig. 47 source data", "value": 3.281}, {"measurement": "Th-T fluorescence, mean of three wells", "setting": "time-course reading M98, Supplementary Fig. 47 source data", "value": 3.314}, {"measurement": "Th-T fluorescence, mean of three wells", "setting": "time-course reading M99, Supplementary Fig. 47 source data", "value": 3.322}, {"measurement": "Th-T fluorescence, mean of three wells", "setting": "time-course reading M100, Supplementary Fig. 47 source data", "value": 3.3481}, {"measurement": "Th-T fluorescence, mean of three wells", "setting": "time-course reading M101, Supplementary Fig. 47 source data", "value": 3.295}, {"measurement": "Th-T fluorescence, mean of three wells", "setting": "time-course reading M102, Supplementary Fig. 47 source data", "value": 3.298}, {"measurement": "Th-T fluorescence, mean of three wells", "setting": "time-course reading M103, Supplementary Fig. 47 source data", "value": 3.312}, {"measurement": "Th-T fluorescence, mean of three wells", "setting": "time-course reading M104, Supplementary Fig. 47 source data", "value": 3.321}, {"measurement": "Th-T fluorescence, mean of three wells", "setting": "time-course reading M105, Supplementary Fig. 47 source data", "value": 3.301}, {"measurement": "Th-T fluorescence, mean of three wells", "setting": "time-course reading M106, Supplementary Fig. 47 source data", "value": 3.313}, {"measurement": "Th-T fluorescence, mean of three wells", "setting": "time-course reading M107, Supplementary Fig. 47 source data", "value": 3.319}, {"measurement": "Th-T fluorescence, mean of three wells", "setting": "time-course reading M108, Supplementary Fig. 47 source data", "value": 3.3191}, {"measurement": "Th-T fluorescence, mean of three wells", "setting": "time-course reading M109, Supplementary Fig. 47 source data", "value": 3.3293}, {"measurement": "Th-T fluorescence, mean of three wells", "setting": "time-course reading M110, Supplementary Fig. 47 source data", "value": 3.309}, {"measurement": "Th-T fluorescence, mean of three wells", "setting": "time-course reading M111, Supplementary Fig. 47 source data", "value": 3.3187}, {"measurement": "Th-T fluorescence, mean of three wells", "setting": "time-course reading M112, Supplementary Fig. 47 source data", "value": 3.343}, {"measurement": "Th-T fluorescence, mean of three wells", "setting": "time-course reading M113, Supplementary Fig. 47 source data", "value": 3.364}, {"measurement": "Th-T fluorescence, mean of three wells", "setting": "time-course reading M114, Supplementary Fig. 47 source data", "value": 3.378}, {"measurement": "Th-T fluorescence, mean of three wells", "setting": "time-course reading M115, Supplementary Fig. 47 source data", "value": 3.333}, {"measurement": "Th-T fluorescence, mean of three wells", "setting": "time-course reading M116, Supplementary Fig. 47 source data", "value": 3.348}]}
